Laboratory results: the supplement of paper PMC10307832

Experiments:
Test in all cases: relative viability (nuclei count vs DMSO), 5 days (fraction); higher = more cells survive
Idelalisib + Linsitinib = compound: CC[C@H](Nc1ncnc2[nH]cnc12)c1nc2cccc(F)c2c(=O)n1-c1ccccc1 [Idelalisib] + C[C@]1(O)C[C@@H](c2nc(-c3ccc4ccc(-c5ccccc5)nc4c3)c3c(N)nccn32)C1 [Linsitinib] (partner 1 µM)
In short: (§1)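 Lung cancer cell lines, seeded in 1536-well plates, were treated the following day by pin tool with a single drug or with five library-drug doses (not always all listed) in √10 steps on top of a fixed anchor-drug dose. Cells were fixed and nuclei stained in one step after 5 days, and nuclei were counted. Relative viability is the nuclei count for treated wells divided by that for vehicle wells, reported as medians of duplicate plates.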

Pemetrexed + Luminespib = compound: Nc1nc2[nH]cc(CCc3ccc(C(=O)N[C@@H](CCC(=O)O)C(=O)O)cc3)c2c(=O)[nH]1 [Pemetrexed] + CCNC(=O)c1noc(-c2cc(C(C)C)c(O)cc2O)c1-c1ccc(CN2CCOCC2)cc1 [Luminespib] (partner 0.01 µM)
In short: as §1

Pemetrexed + Foretinib = compound: Nc1nc2[nH]cc(CCc3ccc(C(=O)N[C@@H](CCC(=O)O)C(=O)O)cc3)c2c(=O)[nH]1 [Pemetrexed] + COc1cc2c(Oc3ccc(NC(=O)C4(C(=O)Nc5ccc(F)cc5)CC4)cc3F)ccnc2cc1OCCCN1CCOCC1 [Foretinib] (partner 0.25 µM)
In short: as §1

Pemetrexed + Phenformin = compound: Nc1nc2[nH]cc(CCc3ccc(C(=O)N[C@@H](CCC(=O)O)C(=O)O)cc3)c2c(=O)[nH]1 [Pemetrexed] + N=C(N)NC(=N)NCCc1ccccc1 [Phenformin] (partner 250 µM)
In short: as §1

Cell Line	relative viability (Idelalisib + Linsitinib; first compound 0.04 µM)	relative viability (Idelalisib + Linsitinib; first compound 0.1265 µM)	relative viability (Idelalisib + Linsitinib; first compound 0.4 µM)	relative viability (Idelalisib + Linsitinib; first compound 1.265 µM)	relative viability (Idelalisib + Linsitinib; first compound 4 µM)	relative viability (Pemetrexed + Luminespib; first compound 0.002 µM)	relative viability (Pemetrexed + Luminespib; first compound 0.006325 µM)	relative viability (Pemetrexed + Luminespib; first compound 0.02 µM)	relative viability (Pemetrexed + Luminespib; first compound 0.06325 µM)	relative viability (Pemetrexed + Luminespib; first compound 0.2 µM)	relative viability (Pemetrexed + Foretinib; first compound 0.002 µM)	relative viability (Pemetrexed + Foretinib; first compound 0.006325 µM)	relative viability (Pemetrexed + Foretinib; first compound 0.02 µM)	relative viability (Pemetrexed + Foretinib; first compound 0.06325 µM)	relative viability (Pemetrexed + Foretinib; first compound 0.2 µM)	relative viability (Pemetrexed + Phenformin; first compound 0.002 µM)	relative viability (Pemetrexed + Phenformin; first compound 0.006325 µM)	relative viability (Pemetrexed + Phenformin; first compound 0.02 µM)	relative viability (Pemetrexed + Phenformin; first compound 0.06325 µM)	relative viability (Pemetrexed + Phenformin; first compound 0.2 µM)
H3255	0.959	1.01	0.829	0.857	0.801	0.714	0.799	0.93	0.852	0.844	0.608	0.924	1.07	0.943	0.741	0.349	0.355	0.414	0.418	0.414
Calu-6	1.06	1	0.889	0.942	0.93						0.821	0.877	0.95	0.888	0.845					
SW 900						0.198	0.147	0.18	0.181	0.158	0.908	0.77	0.874	0.688	0.588	0.759	0.578	0.763	0.548	0.477
NCI-H650	0.934	0.981	0.789	0.798	0.775	0.751	0.733	0.732	0.705	0.842	1.07	0.97	1.08	0.988	1.02	0.406	0.468	0.457	0.428	0.469
NCI-H460	0.834	0.801	0.624	0.681	0.56	0.0265	0.0449	0.0346	0.0259	0.0265	0.989	0.942	1.1	0.64	0.0776	0.432	0.452	0.56	0.247	0.0552
NCI-H2228	0.66	0.68	0.586	0.768	0.511	0.18		0.153	0.115	0.124	0.71		0.993	0.633	0.302	0.308		0.268	0.2	0.184
NCI-H2085	0.912	1.03	0.8	0.579	0.437	0.386	0.304	0.449	0.414	0.427	1.03	0.737	1.11	0.966	1.17	0.664	0.685	0.735	0.808	0.779
HCC-366	0.619	0.598	0.444	0.578	0.253						0.799	0.888	0.963	0.863	0.901	0.515	0.616	0.672	0.612	0.571
EPLC-272H	1.49	0.996	0.977	1.13	0.976	0.265	0.153	0.27	0.321	0.536	0.648	0.609	0.774	0.678	0.573	0.242	0.315	0.333	0.292	0.267
NCI-H1650						0.192	0.18	0.199	0.178	0.183	0.985	0.988	1.17	0.888	0.402	0.415	0.39	0.408	0.309	0.231
NCI-H2342						0.678	0.8	0.676	0.799	0.788	0.997	1.08	0.94	1.05	0.915	0.501	0.6	0.526	0.54	0.618
NCI-H522						1.21	1	1.29	1.12	1.24						0.739	0.593	0.77	0.692	0.583
EBC-1	0.762	1.03	0.907	0.84	0.637						0.117	0.112	0.107	0.0993	0.0915					
ChaGo-K-1						0.582	0.577	0.608	0.47	0.239	0.991	0.919	0.948	0.529	0.301	0.497	0.495	0.507	0.332	0.217
HCC-78	0.254	0.514	0.346	0.45	0.226						0.447	0.541	0.54	0.319	0.298	0.446	0.694	0.599	0.361	0.255
IA-LM	0.426	0.83	0.709	0.541	0.404						1.05	1.1	1.05	1.14	0.829					
NCI-H1703	1.31	0.976	0.669	1.2	0.474						0.304	0.283	0.415	0.345	0.369					
A549	0.53	0.544	0.416	0.589	0.446						0.935	0.902	1.08	1.02	0.925	0.161	0.155	0.169	0.161	0.14
HCC-44	0.662	0.65	0.596	0.476	0.584	1.08	1.03	1.09	0.918	0.666						0.129	0.23	0.187	0.224	0.207
NCI-H1623						0.628	0.325	0.503	0.443	0.613	0.794	0.831	0.861	0.848	0.769	0.575	0.588	0.564	0.627	0.598
NCI-H1792	0.242	0.498	0.508	0.443	0.461	0.578	0.51	0.539	0.476	0.45						0.311	0.368	0.297	0.252	0.272
